Measured values: patent US7935719B2, “N-substituted-azacyclylamines as histamine-3 antagonists” (Wyeth LLC, priority 2006, dated 2011)

Tests used:
[1] = biological target: T1, Histamine Receptor H3 (Homo sapiens, UniProt Q9Y5N1); assay: Cyclic AMP assay for histamine receptor H3 antagonism activity; type: cell-based; set-up: expressed in transfected cells; conditions: stable H3 cells, histamine plus 10 μM forskolin, 30 min at 30° C., HitHunter cAMP kit
Experimental: Cyclic Amp Assay for Histamine Receptor H3 Antagonism Activity.
Stable H3 cells are maintained in tissue culture flask in DMEM with high glucose, 10% FBS, 1× pen/strep, 500 ug/ml GY18, until experiment. Culture media is removed and cells are washed twice with PBS w/Ca+2 and Mg+2 plus 500 μM IBMX. Cells are then detached by tapping on the side of the flask and resuspend in the same buffer. Two thousand cells/well are incubated with 1 μM histamine plus 10 μM forskolin plus various concentrations of compounds in a total volume of 30 μL in 96 well plates for 30 min at 30° C. Final test compound concentrations range from 10^-4 M to 10-9.5 M at full log dilutions. Cyclic AMP levels are measured using HitHunter cAMP kit from Discoverx, cat#900041 according to manufacturer's instruction. Chemiluminescence signals are detected using Top Count (Packard). Cyclic AMP levels in control cells receiving 10 μM forskolin plus 100 nM histamine are considered 0%, and in cells receiving 10 uM forskolin plus 100 nM histamine plus 1 μM clobenpropit are considered 100%. Data are expressed as % control and analyzed using Prizm software. The Kb values are calculated using the following equation, KB=EC50 or IC50/[1+(ligand/Kd)].

[2] = biological target: T1, Histamine Receptor H3; assay: Methyl histamine binding in human histamine H3 receptor cell line; set-up: expressed in transfected cells; host or cells: HEK293T; conditions: membranes of stably transfected HEK293T cells, radioligand 1 nM, Ki from IC50 by Cheng-Prusoff
Experimental: Evaluation of Methyl Histamine Binding in Human Histamine H3 Receptor Cell Line
The affinity of test compounds for the histamine 3 (H3) receptor is evaluated in the following manner. […] Cells are scraped from the plate, transferred to centrifuge tubes, washed one time in PBS by centrifugation in a Sorvall RT7 Plus centrifuge (2000 rpm 10 minutes, 4° C.). The resulting pellets are stored at −80° C. until ready for use. Cells are re-suspended in buffer (50 mM Tris pH=7.5) and placed in a Dounce homogenizer, douncing ten times to homogenize cells. The homogenate is spun down by centrifugation (Sorvall RT7 Plus, 1800 rpm 10 minutes, 4° C.). The supernatant is placed in a Corex tube and spun down by centrifugation (Sorvall RC 5c Plus, 17,000 rpm 20 minutes, 4° C.). The pellet is resuspended in buffer (50 mM Tris, pH 7.5). Protein concentration (ug/ul) is determined using the Micro-BCA Protein Determination. The binding assay is set up in a 96 well microtiter plate in a total volume of 250 uL. Non-specific binding is determined in the presence of 10 uM clobenpropit. The final radioligand concentration is 1 nM. The test compound is serially diluted using the Beckman Biomek2000 to a final approximate range of 100 uM to 100 pM. Membranes are suspended in buffer, homogenized in 2 bursts of ten seconds using a Vitris mechanical homogenizer set at power setting 5. Ten μg of membranes are added to each well. Following a one hour incubation at 30° C., the reaction is terminated by the addition of ice cold buffer and rapid filtration with a Packard Filtermate Harvester through a GF/B filter pre-soaked with 1% PEI for one hour. The plate is dried for one hour at 37° C. and 60 μL Microscint Scintillant is added to each well. The CPM per well is measured on a Packard Top Count NXT. Ki values are determined in nM. […] CPM values are expressed as % specific binding and plotted vs compound concentration. A curve is fitted using a four-parameter logistic fit and the IC50 value is determined. The Ki is calculated from this using the Cheng-Prusoff equation: […]=IC50/1+(L/Kd) where L=concentration of free radioligand used in the assay, and Kd is the dissociation constant of the radioligand for the receptor. L is determined for each experiment by counting an aliquot of the diluted radioligand (corresponding to that added to each well) and the Kd has previously been determined under identical conditions for this cell line/radioligand.

T1 sequence (Q9Y5N1 whole entry): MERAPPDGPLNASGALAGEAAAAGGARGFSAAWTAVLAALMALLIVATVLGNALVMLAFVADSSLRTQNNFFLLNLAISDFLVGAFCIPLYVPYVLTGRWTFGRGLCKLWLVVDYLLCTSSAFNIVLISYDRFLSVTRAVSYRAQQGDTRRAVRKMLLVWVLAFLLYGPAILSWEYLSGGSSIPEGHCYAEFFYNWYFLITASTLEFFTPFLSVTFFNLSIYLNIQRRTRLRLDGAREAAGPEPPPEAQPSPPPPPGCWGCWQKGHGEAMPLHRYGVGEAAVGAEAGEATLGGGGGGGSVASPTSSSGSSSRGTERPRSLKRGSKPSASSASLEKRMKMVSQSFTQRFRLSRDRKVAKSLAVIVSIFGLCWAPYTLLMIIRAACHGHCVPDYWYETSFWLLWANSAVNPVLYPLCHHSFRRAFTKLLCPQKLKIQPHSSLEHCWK

SMILES | Kb [1] [µM] | Ki [2] [µM]
Cc1nc2ccccc2n1-c1ccc(C(=O)N2CC[C@H](N3CCC[C@H]3C)C2)cc1 [Example 21, (2R,3′S)-2-methyl-1′-[4-(2-methyl-1H-benzimidazol-1-yl)benzoyl]-1,3′-bipyrrolidine] | < 0.01 | < 0.01
Cc1nc2ccccc2n1-c1ccc(C(=O)N2CC[C@H](N3CCC[C@@H]3C)C2)cc1 [Example 22, (2S,3′S)-2-methyl-1′-[4-(2-methyl-1H-benzimidazol-1-yl)benzoyl]-1,3′-bipyrrolidine] | < 0.01 | < 0.01
Cc1nc2ccccc2n1-c1ccc(C(=O)N2CC[C@H](N3CCCC(C)C3)C2)cc1 (stereo partly drawn) [Example 24, 2-methyl-1-(4-{[(3S)-3-(3-methylpiperidin-1-yl)pyrrolidin-1-yl]carbonyl}phenyl)-1H-benzimidazole] | < 0.01 | < 0.01
Cc1nc2ccccc2n1-c1ccc(C(=O)N2CC[C@H](N3CCCCC3)C2)cc1 [Example 28, 2-methyl-1-(4-{[(3S)-3-piperidin-1-ylpyrrolidin-1-yl]carbonyl}phenyl)-1H-benzimidazole] | < 0.01 | < 0.01
O=C(c1ccc(-n2ccc3c(F)cccc32)cc1)N1CC[C@H](N2CCCC2)C1 [Example 31, (3′S)-1′-[4-(4-fluoro-1H-indol-1-yl)benzoyl]-1,3′-bipyrrolidine] | < 0.01 | < 0.01
COc1ccc2c(ccn2-c2ccc(C(=O)N3CC[C@H](N4CCCC4)C3)cc2)c1 [Example 33, (3′S)-1′-[4-(5-methoxy-1H-indol-1-yl)benzoyl]-1,3′-bipyrrolidine] | < 0.01 | < 0.01
N#Cc1ccc2c(ccn2-c2ccc(C(=O)N3CC[C@H](N4CCCC4)C3)cc2)c1 [Example 36, 1-{4-[(3′S)-1,3′-bipyrrolidin-1′-ylcarbonyl]phenyl}-1H-indole-5-carbonitrile] | < 0.01 | < 0.01
O=C(c1ccc(-n2ccc3cc(F)ccc32)cc1)N1CC[C@H](N2CCCC2)C1 [Example 37, (3′S)-1′-[4-(5-fluoro-1H-indol-1-yl)benzoyl]-1,3′-bipyrrolidine] | < 0.01 | < 0.01
O=C(c1ccc(-n2ccc3cccc(F)c32)cc1)N1CC[C@H](N2CCCC2)C1 [Example 39, (3′S)-1′-[4-(7-fluoro-1H-indol-1-yl)benzoyl]-1,3′-bipyrrolidine] | < 0.01 | < 0.01
